# Experimental data: patent US5672609A, “Pyridine compounds, intermediates compositions and methods of use” (Eli Lilly and Company, priority 1996, dated 1997)
# Where “and” joins values, the source holds several entries; their conditions need not be identical. Equal entries are not always repeated.
# Assays:
# [1] = system: Uterine Eosinophil Peroxidase (EPO); experiment: Uterine Eosinophil Peroxidase (EPO) Assay (Table 1); type: in vivo, female Sprague Dawley rats; set-up: key to Uterine EPO (V. max): Vmax of absorbance increase at 450 nm, monitored over 1 min; conditions: for Uterine EPO (V. max): OVX rats, daily for 4 days
# Description: (§1) Seventy-five day old female Sprague Dawley rats (weight range of 200 to 225 g) were obtained from Charles River Laboratories (Portage, Mich.). The animals were either bilaterally ovariectomized (OVX) or exposed to a sham surgical procedure at Charles River Laboratories, and then shipped after one week. Upon arrival, they were housed in metal hanging cages in groups of 3 or 4 per cage and had ad libitum access to food (calcium content approximately 0.5%) and water for one week. Room temperature was maintained at 22.2° ±1.7° C. with a minimum relative humidity of 40%. The photoperiod in the room was 12 hours light and 12 hours dark.
# (§2) Dosing Regimen Tissue Collection. After a one week acclimation period (therefore, two weeks post-OVX) daily dosing with test compound was initiated. 17α-ethynyl estradiol or the test compound were given orally, unless otherwise stated, as a suspension in 1% carboxymethylcellulose or dissolved in 20% cyclodextrin. Animals were dosed daily for 4 days. Following the dosing regimen, animals were weighed and anesthetized with a ketamine: Xylazine (2:1, V:V) mixture and a blood sample was collected by cardiac puncture. The animals were then sacrificed by asphyxiation with CO2, the uterus was removed through a midline incision, and a wet uterine weight was determined.
# Uterine Eosinomhil Peroxidase (EPO) Assay. Uteri were kept at 4° C. until time of enzymatic analysis. The uteri were then homogenized in 50 volumes of 50 mM Tris buffer (pH-8.0) containing 0.005% Triton X-100. Upon addition of 0.01% hydrogen peroxide and 10 mM O-phenylenediamine (final concentrations) in Tris buffer, increase in absorbance was monitored for one minute at 450 nm. The presence of eosinophils in the uterus is an indication of estrogenic activity of a compound. The maximal velocity of a 15 second interval was determined over the initial, linear portion of the reaction curve.
# As is expressed in the below data, estrogenicity also was assessed by evaluating the response of eosinophil infiltration into the uterus.
# (§3) The data presented in Table 1 below reflects the response of 5 to 6 rats per treatment.
# [2] = system: Femur (distal metaphysis); experiment: Osteoporosis Test: distal femur metaphysis x-ray image / bone density (Table 2); type: in vivo, rats; conditions: for Femur (x-ray image) (% protect.): daily for 35 days, 6-month-old rats; for bone density, in words: ovariectomized rats, oral, 35 days
# Experimental: Following the General Preparation Procedure, infra, the rats were treated daily for 35 days (6 rats per treatment group) and sacrificed by carbon dioxide asphyxiation on the 36th day. The 35 day time period was sufficient to allow maximal reduction in bone density, measured as described herein. At the time of sacrifice, the uteri were removed, dissected free of extraneous tissue, and the fluid contents were expelled before determination of wet weight in order to confirm estrogen deficiency associated with complete ovariectomy. […] The right femurs were excised and digitilized x-rays generated and analyzed by an image analysis program (NIH image) at the distal metaphysis. The proximal aspect of the tibiae from these animals were also scanned by quantitative computed tomography. In accordance with the above procedures, the compound of Example 9 and ethynyl estradiol (EE2) in 20% hydroxypropyl β-cyclodextrin were orally administered to test animals. Distal femur metaphysis data presented in Tables 2 and 3 below are the results of compound treatments compared to intact and ovariectomized test animals. The rats in the Table 2 tests were 6 months of age rather than 75 days of age (at the beginning of the tests).
# [3] = system: uterus; experiment: Uterine weight in ovariectomized rats, 4-day oral dosing (Table 1); type: in vivo, female Sprague Dawley rats; conditions: OVX rats; for change in vivo at 10 mg/kg: 10 mg/kg oral; for change in vivo at 25 mg/kg: 25 mg/kg oral
# Experimental: In the examples illustrating the methods, a post-menopausal model was used in which effects of different treatments upon circulating lipids were determined.
# as §1, §2
# (§4) Data presented in Table 1 below show comparative results among ovariectomized rats, rats treated with 17α-ethynyl estradiol (EE2; an orally available form of estrogen), and rats treated with certain compounds of the present invention. […] This uterine response to estrogen is well recognized in the art.
# as §3
# [4] = system: uterus; experiment: Osteoporosis Test: uterine weight (Table 2); type: in vivo; conditions: daily for 35 days, 6-month-old rats
# Experimental: (§5) Following the General Preparation Procedure, infra, the rats were treated daily for 35 days (6 rats per treatment group) and sacrificed by carbon dioxide asphyxiation on the 36th day. The 35 day time period was sufficient to allow maximal reduction in bone density, measured as described herein. At the time of sacrifice, the uteri were removed, dissected free of extraneous tissue, and the fluid contents were expelled before determination of wet weight in order to confirm estrogen deficiency associated with complete ovariectomy. […] In accordance with the above procedures, the compound of Example 9 and ethynyl estradiol (EE2) in 20% hydroxypropyl β-cyclodextrin were orally administered to test animals. Distal femur metaphysis data presented in Tables 2 and 3 below are the results of compound treatments compared to intact and ovariectomized test animals. The rats in the Table 2 tests were 6 months of age rather than 75 days of age (at the beginning of the tests).
# [5] = system: Serum cholesterol; experiment: Serum cholesterol in ovariectomized rats, 4-day oral dosing (Table 1); type: in vivo, female Sprague Dawley rats; conditions: OVX rats; for inhibition in vivo at 25 mg/kg: 25 mg/kg oral
# Description: as §1, §2
# (§6) Cholesterol Analysis. Blood samples were allowed to clot at room temperature for 2 hours, and serum was obtained following centrifugation for 10 minutes at 3000 rpm. Serum cholesterol was determined using a Boehringer Mannheim Diagnostics high performance cholesterol assay. Briefly the cholesterol was oxidized to cholest-4-en-3-one and hydrogen peroxide. The hydrogen peroxide was then reacted with phenol and 4-aminophenazone in the presence of peroxidase to produce a p-quinone imine dye, which was read spectrophotometrically at 500 nm. Cholesterol concentration was then calculated against a standard curve. The entire assay was automated using a Biomek Automated Workstation.
# as §4, §3
# [6] = system: Serum cholesterol; experiment: Osteoporosis Test: serum cholesterol (Table 2); type: in vivo; conditions: daily for 35 days, 6-month-old rats
# Experimental: as §6
# Following the General Preparation Procedure, infra, the rats were treated daily for 35 days (6 rats per treatment group) and sacrificed by carbon dioxide asphyxiation on the 36th day. The 35 day time period was sufficient to allow maximal reduction in bone density, measured as described herein. At the time of sacrifice, the uteri were removed, dissected free of extraneous tissue, and the fluid contents were expelled before determination of wet weight in order to confirm estrogen deficiency associated with complete ovariectomy.
# In accordance with the above procedures, the compound of Example 9 and ethynyl estradiol (EE2) in 20% hydroxypropyl β-cyclodextrin were orally administered to test animals. Distal femur metaphysis data presented in Tables 2 and 3 below are the results of compound treatments compared to intact and ovariectomized test animals. The rats in the Table 2 tests were 6 months of age rather than 75 days of age (at the beginning of the tests).
# [7] = Osteoporosis Test: body weight change (Table 2); type: in vivo; conditions: daily for 35 days, 6-month-old rats
# Experimental: as §5
# [8] = system: MCF-7 breast adenocarcinoma cells; experiment: MCF-7 Proliferation Assay; type: cell-based; conditions: Homo sapiens, MCF7, tritiated thymidine, 48 hours
# Experimental: MCF-7 breast adenocarcinoma cells (ATCC HTB 22) were maintained in MEM (minimal essential medium, phenol red-free, Sigma, St. Louis, Mo.) supplemented with 10% fetal bovine serum (FBS) (V/V), L-glutamine (2 mM), sodium pyruvate (1 mM), HEPES {(N-[2-hydroxyethyl]piperazine-N'-[2-ethanesulfonic acid]10 mM}, non-essential amino acids and bovine insulin (1 ug/mL) (maintenance medium). Ten days prior to assay, MCF-7 cells were switched to maintenance medium supplemented with 10% dextran coated charcoal stripped fetal bovine serum (DCC-FBS) assay medium) in place of 10% FBS to deplete internal stores of steroids. MCF-7 cells were removed from maintenance flasks using cell dissociation medium (Ca++/Mg++free HBSS (phenol red-free) supplemented with 10 mM HEPES and 2 mM EDTA). Cells were washed twice with assay medium and adjusted to 80,000 cells/mL. Approximately 100 μL (8,000 cells) were added to flat-bottom microculture wells (Costar 3596) and incubated at 37° C. in a 5% CO2 humidified incubator for 48 hours to allow for cell adherence and equilibration after transfer. Serial dilutions of drugs or DMSO as a diluent control were prepared in assay medium and 50 μL transferred to triplicate microcultures followed by 50 μL assay medium for a final volume of 200μ. After an additional 48 hours at 37° C. in a 5% CO2 humidified incubator, microcultures were pulsed with tritiated thymidine (1 uCi/well) for 4 hours. Cultures were terminated by freezing at -70° C. for 24 hours followed by thawing and harvesting of microcultures using a Skatron Semiautomatic Cell Harvester. Samples were counted by liquid scintillation using a Wallac BetaPlace β counter. Results in Table 4 below show the IC50 for certain compounds of the present invention.
# [9] = Rattus norvegicus, po, 96 h, daily for 4 days, read-out: Uterine Wt. (% inc. vs. OVX)
# [10] = Rattus norvegicus, po, 96 h, daily for 4 days, read-out: Serum Cholesterol (% dec. vs. OVX)
smiles,measurement,setting,value
"C#CC1(O)CCC2C3CCc4cc(O)ccc4C3CCC21C (stereo not drawn) [EE2, 17α-ethynyl estradiol, reference compound]","eosinophil infiltration into the uterus, in words",[1]; ovariectomized rats,"caused a substantial, expected increase in eosinophil infiltration"
same,Femur (x-ray image) (% protect.),[2]; 0.1 mg/kg oral,41.8% and 25.5%
same,"bone density, in words",[2],prevented this loss
same,"uterine weight, in words","[3]; oral, EE2 at 0.1 mg/kg/day",uterine weight was substantially greater than the uterine weight of ovariectomized control animals
same,Uterine Wt. (% inc. vs. OVX),[4]; 0.1 mg/kg oral,128.3% and 226.1%
same,"serum cholesterol, in words","[5]; oral, EE2 at 0.1 mg/kg/day",caused a decrease in serum cholesterol
same,Serum Chol. (% dec. vs. OVX),[6]; 0.1 mg/kg oral,73.8% and 73.6%
"Cc1ccc(-c2ccc(O)cc2)c(-c2ccc(OCCN3CCCC3)cc2)n1 [Example 9, 2-[4-[2-(1-Pyrrolidinyl)ethoxy]phenyl]-3-(4-hydroxyphenyl)-6-methylpyridine]",Body Wt. Change (% dec. vs. OVX),[7]; 0.01 mg/kg oral,-5%
same,Body Wt. Change (% dec. vs. OVX),[7]; 0.1 mg/kg oral,-8.2%
same,Body Wt. Change (% dec. vs. OVX),[7]; 25 mg/kg oral,6.3%
same,Femur (x-ray image) (% protect.),[2]; 0.01 mg/kg oral,-11.5%
same,Femur (x-ray image) (% protect.),[2]; 0.1 mg/kg oral,-16.4%
same,Femur (x-ray image) (% protect.),[2]; 25 mg/kg oral,33.3%
same,"bone density, in words",[2],"elevated mean bone density in a general, dose-related manner"
same,change in vivo at 10 mg/kg,[3]; [9],26.3%
same,change in vivo at 25 mg/kg,[3]; [9],24.3%
same,Uterine Wt. (% inc. vs. OVX),[4]; 0.01 mg/kg oral,-3.5%
same,Uterine Wt. (% inc. vs. OVX),[4]; 0.1 mg/kg oral,-11%
same,Uterine Wt. (% inc. vs. OVX),[4]; 25 mg/kg oral,-6.8%
same,inhibition in vivo at 10 mg/kg,"[5]; Rattus norvegicus, po, 96 h, 10 mg/kg oral, daily for 4 days, read-out: Serum Cholesterol (% dec. vs. OVX)",49.2%
same,inhibition in vivo at 25 mg/kg,[5]; [10],58.5%
same,Serum Chol. (% dec. vs. OVX),[6]; 0.01 mg/kg oral,44.4%
same,Serum Chol. (% dec. vs. OVX),[6]; 0.1 mg/kg oral,33.6%
same,Serum Chol. (% dec. vs. OVX),[6]; 1 mg/kg oral,35.4% and 54.2%
same,Serum Chol. (% dec. vs. OVX),[6]; 10 mg/kg oral,35.4% and 42.2%
same,Serum Chol. (% dec. vs. OVX),[6]; 25 mg/kg oral,19.7%
"COc1ccc(-c2ccc(-c3ccc(F)cc3)nc2-c2ccc(OCCN3CCCCC3)cc2)cc1 [Example 6, 2-[4-[2-(1-Piperidinyl)ethoxy]phenyl]-3-(4-methoxyphenyl)-6-(4-fluorophenyl)pyridine]",IC50,[8],470 nM
same,Uterine EPO (V. max),[1]; 0.1 mg/kg oral,6.6
same,Uterine EPO (V. max),[1]; 25 mg/kg oral,22.6
same,change in vivo at 0.1 mg/kg,"[3]; Rattus norvegicus, po, 96 h, 0.1 mg/kg oral, daily for 4 days, read-out: Uterine Wt. (% inc. vs. OVX)",9.5%
same,change in vivo at 10 mg/kg,[3]; [9],44.2%
same,change in vivo at 25 mg/kg,[3]; [9],69.5%
same,inhibition in vivo at 0.1 mg/kg,"[5]; Rattus norvegicus, po, 96 h, 0.1 mg/kg oral, daily for 4 days, read-out: Serum Cholesterol (% dec. vs. OVX)",4%
same,inhibition in vivo at 1 mg/kg,"[5]; Rattus norvegicus, po, 96 h, 1 mg/kg oral, daily for 4 days, read-out: Serum Cholesterol (% dec. vs. OVX)",12.3%
same,inhibition in vivo at 25 mg/kg,[5]; [10],40.8%
same,ED50,"[5]; Rattus norvegicus, po, 96 h, oral, daily for 4 days, dose column in mg/kg, read-out: ED50 (effective dose to dec. serum chol. by 50%)",70 mg/kg
